Where “and” joins values, the source holds several entries; their conditions need not be identical. Identical values can stand only once.

For one data set, the system named is rats. Put plainly: Blood glucose levels in rats co-administered with quercetin-3′-O-phosphate and tacrolimus. The class given is in vivo, rat. The following applies: for Blood glucose, Mean change from Prograf ® control / Blood glucose, Mean change from Day 1: Q-Phosphate 114 mg/kg + Prograf 0.5 mg/kg i.p.; for Blood glucose, Mean: Q-Phosphate 114 mg/kg i.p. Day 11 to Day 25 + Prograf 0.5 mg/kg i.p., 5 rats; for Blood glucose, individual rats: Q-Phosphate 114 mg/kg i.p. once daily Day 11 to Day 25 + Prograf 0.5 mg/kg i.p. Day 1 to Day 25. How it is done: One set of 5 rats is treated from day 1 to day 25 with inert vehicle 2 intraperitoneally and treated from day 11 to day 25 with inert vehicle 1 intraperitoneally. […] A third set 5 of rats is treated from day 1 to day 25 with tacrolimus (Prograf®) intraperitoneally at 0.5 mg/kg, and treated from day 11 to day 25 intraperitoneally with quercetin-3′-O-phosphate (Q-Phosphate) at 114 mg/kg. The blood glucose level in the rats is measured on days 1, 10, 15, 20, and 25.

Data set [1] in a line: Secondary toxicity screen, overall finding. The following applies: 10 μM against 122 targets. How it is done:
A secondary pharmacological screening of molecules of interest at a fixed concentration is often practiced in the pharmaceutical industry in order to evaluate the effect of the compound on secondary targets that could result in untoward toxicity in-vivo. These secondary screens are well known in the art and can be carried out by labs which specialize in these tests such as MDS-Panlabs and CEREP. A secondary toxicity screen is performed with Quercetin-3′-O-phosphate at a concentration of 10 μM against 122 targets in enzyme, radioligand binding, and cellular assays by MDS Pharma Services by methods well known in the art. Inhibition is found in only the following targets (percent inhibition at 10 μM in parentheses): ATPase, Na+/K+, Heart, Pig (65%), Nitric Oxide Synthase, Endothelial (eNOS) (72%), Protein Tyrosine Kinase, FGFR2 (94%), Protein Tyrosine Kinase, FGFR1(96%), Protein Tyrosine Kinase, Insulin Receptor (91%), Protein Tyrosine Kinase, (82%), Protein Tyrosine Kinase, ZA70 (ZAP-70) (74%), UDP Glucuronosyltransferase, UGT1A1 (52%), Adenosine A1 (50%), Adrenergic α2A (57%), Dopamine D47 (51%), Peripheral Benzodiazepine Receptor (PBR) (53%), Transporter, Monoamine rabbit (68%), Serotonin (5-Hydroxytryptamine) 5-HT1A (62%).

Consider `O=c1c(O)c(-c2ccc(O)c(OP(=O)(O)O)c2)oc2cc(O)cc(O)c12` [Quercetin-3′-O-phosphate], for which the “Blood glucose, Mean change from Prograf ® control” value in the data set on rats (Day 1) was “+0.02 g/l”; with rats (Day 10), “+0.45 g/l”; with rats (Day 15), -0.26 g/L; in the data set on rats (Day 20) it was -0.09 g/L; in the data set on rats (Day 25) it was -0.39 g/L. For the same compound, the “Blood glucose, Mean” value in the data set with rats (Day 1) is 1.29 g/L; in the data set with rats (Day 10) it was 1.94 g/L; with rats (Day 15) it was 2.28 g/L; in the data set on rats (Day 20), 2.84 g/L; in the data set with rats (Day 25) it was 2.16 g/L. Moreover, the “Blood glucose, individual rats” value in the data set on rats (Day 1) was 1.18 g/L and 1.19 g/L and 1.41 g/L and 1.36 g/L and 1.30 g/L; in the data set with rats (Day 10), 1.50 g/L and 2.41 g/L and 2.19 g/L and 1.51 g/L and 2.10 g/L; with rats (Day 15), 2.07 g/L and 2.90 g/L and 3.16 g/L and 1.83 g/L and 1.42 g/L; in the data set on rats (Day 20), 1.99 g/L and 3.28 g/L and 3.67 g/L and 3.58 g/L and 1.67 g/L; in the data set with rats (Day 25), 2.34 g/L and 2.54 g/L and 2.04 g/L and 2.67 g/L and 1.23 g/L. Moreover, the “Blood glucose, Mean change from Day 1” value in the data set with rats (Day 10) is recorded as “+0.65 g/l”; in the data set with rats (Day 15), “+0.99 g/l”; in the data set with rats (Day 20), “+1.55 g/l”; in the data set on rats (Day 25), “+0.87 g/l”. Further, the “effect on tacrolimus induced hyperglycemia” value in the data set with rats (rats, Q-Phosphate 114 mg/kg i.p. with tacrolimus 0.5 mg/kg) is reported as “can attenuate tacrolimus induced hyperglycemia”. In data set [1], the “toxicity properties (findings of the toxicology screen)” value is “low toxicity properties”.

These data come from patent US7947733B2, “Phosphorylated pyrone analogs and methods” (Limerick BioPharma, priority 2007, dated 2011).
